The source of these data is PubChem BioAssay (NCI).

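These data come from cells grown in 96-well plates and exposed to compound for 48 hours at five concentrations. Abbreviation: GI50, concentration required for 50% inhibition of growth. TGI: concentration producing complete growth inhibition.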

Test systems include SK-MEL-2 melanoma; CCRF-CEM leukemia; COLO 205 colon; MDA-MB-231 breast; HT29 colon; U251 CNS; OVCAR-3 ovarian; SNB-75 CNS; SF-295 CNS; SF-539 CNS.
What all share (test): DTP human tumour cell line panel, 48 h

In the case of `COc1ccc(C(C#N)NC23CC4CC(CC(C4)C2)C3)cc1` (stereo not drawn), the TGI in the experiment with SK-MEL-2 melanoma, in the experiment with CCRF-CEM leukemia, in the experiment on COLO 205 colon, in the experiment on MDA-MB-231 breast, in the experiment on HT29 colon and in the experiment on U251 CNS was more than 100000 nM in each case. For the same molecule, the concentration for total growth inhibition (TGI) with OVCAR-3 ovarian, in the experiment on SNB-75 CNS, with SF-295 CNS and in the experiment on SF-539 CNS was more than 100000 nM each time.

Consider `COC(=O)c1ccc2[nH]c(O)c(C(=Nc3ccc(N(C)C(=O)CN4CCN(C)CC4)cc3)c3ccc4c(c3)OCO4)c2c1`, for which the GI50 – broadly, the concentration at which growth is held to half of that of the control – with SK-MEL-2 melanoma is 1240 nM; in the experiment with CCRF-CEM leukemia, 388 nM; with COLO 205 colon, 369 nM; with MDA-MB-231 breast, 1080 nM; in the experiment with HT29 colon it was 553 nM; with U251 CNS, 884 nM. For the same molecule, the GI50 in the experiment on OVCAR-3 ovarian is 638 nM; with SNB-75 CNS, 75.2 nM; in the experiment on SF-295 CNS, 754 nM; in the experiment on SF-539 CNS it was 341 nM. The concentration for total growth inhibition (TGI) (commonly the concentration at which net growth stops) in the experiment with SK-MEL-2 melanoma is 3690 nM; in the experiment with CCRF-CEM leukemia, 6250 nM; in the experiment with COLO 205 colon, 1740 nM; in the experiment with MDA-MB-231 breast it was 2760 nM; in the experiment on HT29 colon it was more than 27800 nM; with U251 CNS it was 2500 nM. Also, the TGI in the experiment with OVCAR-3 ovarian stood at 2230 nM; in the experiment with SNB-75 CNS, 1650 nM; with SF-295 CNS, 2160 nM; with SF-539 CNS, 1310 nM.

As to `Nc1ncnc2c1ncn2C1C=C(CO)C(O)C1O` (stereo not drawn), the TGI was more than 80400 nM in the experiment with SK-MEL-2 melanoma; 14000 nM with CCRF-CEM leukemia; 19500 nM in the experiment with COLO 205 colon; 52500 nM in the experiment with MDA-MB-231 breast; more than 100000 nM in the experiment with HT29 colon; more than 100000 nM in the experiment on U251 CNS. The concentration for total growth inhibition (TGI) with OVCAR-3 ovarian is more than 85200 nM; with SNB-75 CNS it was 48900 nM; in the experiment with SF-295 CNS, more than 100000 nM; in the experiment with SF-539 CNS, more than 91100 nM.

Regarding `CCCCCCCCn1ccc2cc(NC(=O)Cn3cc(CN4CCCCCC4)nn3)ccc21`, the GI50 was 1930 nM in the experiment on SK-MEL-2 melanoma; 2250 nM with CCRF-CEM leukemia; 1680 nM in the experiment on COLO 205 colon; 1740 nM in the experiment with MDA-MB-231 breast; 1730 nM in the experiment on HT29 colon; 1830 nM in the experiment on U251 CNS. Further, the GI50 is 1730 nM in the experiment on OVCAR-3 ovarian, 1550 nM with SNB-75 CNS, 1740 nM with SF-295 CNS and 1760 nM in the experiment on SF-539 CNS. Besides, the TGI in the experiment with SK-MEL-2 melanoma is 3600 nM; in the experiment with CCRF-CEM leukemia, 7410 nM; in the experiment on COLO 205 colon it was 3250 nM; in the experiment on MDA-MB-231 breast, 3470 nM; in the experiment on HT29 colon it was 3460 nM; in the experiment with U251 CNS it was 3290 nM. For the same molecule, the TGI in the experiment on OVCAR-3 ovarian was 3240 nM; with SNB-75 CNS it was 2910 nM; with SF-295 CNS it was 3330 nM; in the experiment on SF-539 CNS, 3210 nM.

For the molecule `C[C@]12CCc3sc(Nc4ccc(OC(F)(F)F)cc4)nc3C1=CC[C@@H]1[C@@H]2CC[C@]2(C)C(=O)CC[C@@H]12`, the GI50 in the experiment on SK-MEL-2 melanoma was 3000 nM; in the experiment on CCRF-CEM leukemia, 1420 nM; with COLO 205 colon it was 2610 nM; in the experiment with MDA-MB-231 breast, 2420 nM; with HT29 colon, 2390 nM; in the experiment with U251 CNS, 1090 nM. For the same molecule, the GI50 is 1940 nM in the experiment on OVCAR-3 ovarian, 1880 nM in the experiment with SNB-75 CNS, 700 nM in the experiment on SF-295 CNS and 1050 nM in the experiment with SF-539 CNS. The TGI with SK-MEL-2 melanoma is 11600 nM; in the experiment on CCRF-CEM leukemia it was more than 100000 nM; in the experiment on COLO 205 colon, 6760 nM; in the experiment with MDA-MB-231 breast, 7840 nM; in the experiment on HT29 colon it was 10900 nM; in the experiment on U251 CNS it was 3260 nM. Moreover, the concentration for total growth inhibition (TGI) with OVCAR-3 ovarian came out at 4140 nM; with SNB-75 CNS it was 6230 nM; in the experiment on SF-295 CNS, 2440 nM; in the experiment with SF-539 CNS, 2720 nM.

For `O=C(NC(=O)c1c(F)cccc1F)Nc1cccc(Oc2ncc(Cl)cn2)c1`, the concentration for total growth inhibition (TGI) is more than 100000 nM with SK-MEL-2 melanoma; more than 100000 nM with CCRF-CEM leukemia; more than 100000 nM in the experiment on COLO 205 colon; more than 100000 nM in the experiment on MDA-MB-231 breast; more than 46400 nM with HT29 colon; more than 83600 nM in the experiment on U251 CNS. Moreover, the concentration for total growth inhibition (TGI) in the experiment with OVCAR-3 ovarian was more than 100000 nM; in the experiment with SNB-75 CNS, 60300 nM; with SF-295 CNS, more than 85000 nM; in the experiment with SF-539 CNS, more than 100000 nM.

`CN(c1ccc(NC(=O)Nc2c(Cl)cccc2Cl)cc1)c1ccnc(Nc2cccc(CS(C)(=O)=O)c2)n1`: the GI50 in the experiment with SK-MEL-2 melanoma is 5000 nM; in the experiment with CCRF-CEM leukemia, 109 nM; in the experiment on COLO 205 colon it was 160 nM; in the experiment with MDA-MB-231 breast, 4490 nM; in the experiment on HT29 colon it was 2160 nM; with U251 CNS, 2620 nM. The GI50 in the experiment on OVCAR-3 ovarian was 1650 nM; in the experiment with SNB-75 CNS, 1690 nM; in the experiment with SF-295 CNS it was 1540 nM; in the experiment with SF-539 CNS, 304 nM. For the same molecule, the TGI is 11900 nM in the experiment on SK-MEL-2 melanoma; more than 25000 nM in the experiment on CCRF-CEM leukemia; 11900 nM in the experiment with COLO 205 colon; 16900 nM in the experiment with MDA-MB-231 breast; 7810 nM in the experiment with HT29 colon; 9610 nM with U251 CNS. Besides, the total growth inhibition concentration (TGI) with OVCAR-3 ovarian was 5200 nM; in the experiment with SNB-75 CNS it was 7000 nM; in the experiment on SF-295 CNS, 12600 nM; in the experiment with SF-539 CNS it was 6400 nM.

Consider `C#CC1(O)C(COP(=O)(O)OCC(COP(=O)(O)OCC2OC(n3cc(F)c(=O)[nH]c3=O)CC2O)OCCCCCCCCCCCCCCCCCC)OC(n2ccc(N)nc2=O)C1O` (stereo not drawn), for which the GI50 with SK-MEL-2 melanoma is 481 nM; in the experiment with CCRF-CEM leukemia, 217 nM; in the experiment with COLO 205 colon, less than 20.2 nM; with MDA-MB-231 breast, 320 nM; in the experiment on HT29 colon it was 104 nM; in the experiment on U251 CNS it was 135 nM. Further, the GI50 was 448 nM in the experiment on OVCAR-3 ovarian, 713 nM in the experiment on SNB-75 CNS, 55.5 nM in the experiment on SF-295 CNS and less than 10 nM in the experiment with SF-539 CNS. In addition, the TGI in the experiment on SK-MEL-2 melanoma is 6240 nM; in the experiment on CCRF-CEM leukemia, more than 39700 nM; with COLO 205 colon, 1070 nM; with HT29 colon, more than 71900 nM; with U251 CNS, more than 100000 nM; in the experiment on SNB-75 CNS, more than 55300 nM. Besides, the TGI was determined as 16300 nM in the experiment on SF-295 CNS and 3330 nM in the experiment on SF-539 CNS.
